Test results taken from patent publication US7462615B2, “Inhibitors of cysteine proteases, the pharmaceutical compositions thereof and their therapeutic applications” (Hybrigenics SA, priority 2005, dated 2008).

Biological target: T1, USP8 (Homo sapiens, UniProt P40818)
T1 construct: His tag (from vector pFastBac-HT) (N); made in house; host or cells: Sf9 or High Five insect cells (baculovirus)
T1 sequence (P40818 1-1118): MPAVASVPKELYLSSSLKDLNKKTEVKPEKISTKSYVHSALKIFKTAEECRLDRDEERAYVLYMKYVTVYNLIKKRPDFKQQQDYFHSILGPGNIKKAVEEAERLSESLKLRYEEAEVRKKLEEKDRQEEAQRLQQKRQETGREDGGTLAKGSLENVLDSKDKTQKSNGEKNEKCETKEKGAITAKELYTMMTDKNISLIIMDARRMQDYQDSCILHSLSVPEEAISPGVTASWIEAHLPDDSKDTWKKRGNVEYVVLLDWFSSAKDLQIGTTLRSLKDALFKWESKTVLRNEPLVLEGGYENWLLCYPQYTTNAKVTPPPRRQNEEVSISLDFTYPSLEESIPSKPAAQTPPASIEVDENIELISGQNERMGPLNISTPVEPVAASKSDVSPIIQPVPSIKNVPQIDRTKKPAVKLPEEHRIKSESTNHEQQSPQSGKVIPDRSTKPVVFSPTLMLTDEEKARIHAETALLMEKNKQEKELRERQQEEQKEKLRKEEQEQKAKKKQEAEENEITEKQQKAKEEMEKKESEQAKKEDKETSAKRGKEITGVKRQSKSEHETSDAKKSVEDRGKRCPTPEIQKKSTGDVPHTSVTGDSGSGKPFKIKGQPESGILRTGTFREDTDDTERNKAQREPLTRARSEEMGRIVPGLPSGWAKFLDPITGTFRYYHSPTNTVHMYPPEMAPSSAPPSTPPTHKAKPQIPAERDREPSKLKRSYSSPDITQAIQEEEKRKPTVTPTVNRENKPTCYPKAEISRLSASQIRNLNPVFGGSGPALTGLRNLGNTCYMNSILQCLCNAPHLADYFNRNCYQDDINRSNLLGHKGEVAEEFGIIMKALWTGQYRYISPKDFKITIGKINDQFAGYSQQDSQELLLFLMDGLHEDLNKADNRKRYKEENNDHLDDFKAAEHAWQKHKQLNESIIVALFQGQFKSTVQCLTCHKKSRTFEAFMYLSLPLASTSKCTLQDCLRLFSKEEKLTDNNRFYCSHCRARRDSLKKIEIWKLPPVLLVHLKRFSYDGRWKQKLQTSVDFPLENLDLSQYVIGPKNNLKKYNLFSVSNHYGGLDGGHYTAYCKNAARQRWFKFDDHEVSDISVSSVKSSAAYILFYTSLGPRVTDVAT
Assay: USP8 Activity Assay
Type: biochemical
Details: 400 nM Ub-AMC; 630 pM enzyme; pH8.8; pre-incubated 30 minutes at 25° C., 60 minutes at 37° C.; sigmoidal fit; read-out: USP 8 (Inhibition of cysteine protease activities)
Description: The cDNA encoding USP8 was obtained by PCR amplification from placenta mRNA. USP8 cDNA was subcloned by PCR into a baculovirus expression vector (pFastBac-HT; Invitrogen). A cDNA encoding a mutated USP8 was generated by mutagenic PCR. The corresponding protein encodes a cysteine to alanine substitution at residue 786. The sequences were ascertained by sequencing of the entire open reading frame. Bacmids encoding USP7 were generated following DH10bac transposition. The corresponding bacmids were transfected into insect cells (Sf9). Viruses were recovered from culture supernatant and amplified twice. Insect cells (Sf9 or High Five; Invitrogen) were infected for 72 hours. Total cell lysates were harvested and lyzed in lysis buffer (Tris HCl 50 mM pH7.6; 0.75% NP40; 500 mM NaCl; 10% glycerol; 1 mM DTT; 10 mM imidazole; Protease Inhibitor Cocktail; AEBSF 20 μg.ml^−1; Aprotinin 10 μg.ml^−1). Proteins were affinity purified on metal affinity resins (Talon Metal affinity resin; BD Biosciences). Bound materials were extensively washed in wash buffer (50 mM Sodium Phosphate pH 7.0; 300 mM NaCl; 10 mM imidazole; 0.5% Triton X-100; 10% glycerol) and eluted from the resin in 250 mM imidazole-containing wash buffer. Proteins were dialyzed in dialysis buffer (Tris HCl pH 7.6 20 mM; NaCl 200 mM; DTT 1 mM; EDTA 1 mM; 10% Glycerol). Proteins purifications were analyzed on 4-12% NuPAGE (Invitrogen).
USP8 was diluted in USP buffer (50 mM Tris HCl; 0.5 mM EDTA; 5 mM DTT; 0.01% Triton X-100; Bovine Serum Albumin 0.05 mg.ml^−1 pH8.8). Compounds stocks (100 mM) were stored at −20° C. in DMSO.
Reactions were performed as duplicates in Black LJL 96 well plates (HE microplates; Molecular Devices; 20 μl final reaction volume). The substrate concentration for USP8 was 400 nM Ub-AMC (Boston Biochem). The concentrations of the enzyme (USP8) in specificity assays was 630 pM. The concentrations were determined in order to perform specificity assays under initial velocities at fixed substrate concentration. Compounds were pre-incubated with enzymes for 30 minutes at 25° C. Reactions were initiated by addition of substrate to the plates containing the enzymes (+/−compounds) diluted in assay buffer. Reactions were incubated for 60 minutes at 37° C. Reactions were stopped by adding acetic acid (100 mM final). Readings were performed on a Pherastar Fluorescent Reader (BMG). λ Emission 380 nm; λ Excitation=460 nm. Data (mean values +/− standard deviation) were analyzed as % of control (no compound) and plotted as percentage versus the Log of the compound concentration using GraphPad (Prism). Data were fitted to a sigmoidal model (variable slope).

Row | Compound | IC50 [nM]
1 | Cc1nnc2nc3c(nn12)C(=O)c1ccccc1-3 [Example 1b/A, 1-Methyl-2,3,4,10,10a-pentaaza-cyclopenta[b]fluoren-9-one] | 701
2 | Nc1nnc2nc3c(nn12)C(=O)c1ccccc1-3 [Example 1c/A, 1-Amino-2,3,4,10,10a-pentaaza-cyclopenta[b]fluoren-9-one] | 840
3 | Nc1nnc2nc3c(nn12)-c1ccccc1C3=O [Example 1c/B, 3-Amino-1,2,3a,4,10-pentaaza-cyclopenta[b]fluoren-9-one] | 81
4 | CCc1nnc2nc3c(nn12)C(=O)c1ccccc1-3 [Example 1d/A, 1-Ethyl-2,3,4,10,10a-pentaaza-cyclopenta[b]fluoren-9-one] | 537
5 | CCCc1nnc2nc3c(nn12)C(=O)c1ccccc1-3 [Example 1e/A, 1-Propyl-2,3,4,10,10a-pentaaza-cyclopenta[b]fluoren-9-one] | 952
6 | CCCCc1nnc2nc3c(nn12)C(=O)c1ccccc1-3 [Example 1f/A, 1-Butyl-2,3,4,10,10a-pentaaza-cyclopenta[b]fluoren-9-one] | 830
7 | CCCCc1nnc2nc3c(nn12)-c1ccccc1C3=O [Example 1f/B, 3-Butyl-1,2,3a,4,10-pentaaza-cyclopenta[b]fluoren-9-one] | 151
8 | CC(C)Cc1nnc2nc3c(nn12)C(=O)c1ccccc1-3 [Example 1g/A, 1-Isobutyl-2,3,4,10,10a-pentaaza-cyclopenta[b]fluoren-9-one] | 538
9 | CC(C)Cc1nnc2nc3c(nn12)-c1ccccc1C3=O [Example 1g/B, 3-Isobutyl-1,2,3a,4,10-pentaaza-cyclopenta[b]fluoren-9-one] | 167

The remaining lines, values ahead:

Row | IC50 [nM] | Compound
10 | 301 | 6-(7)-Chloro-1-methyl-2,3,4,10,10a-pentaaza-cyclopenta[b]fluoren-9-one [Example 3/A]
11 | 670 | O=C1c2ccccc2-c2nc3nnc(CO)n3nc21 [Example 1h/A, 1-Hydroxymethyl-2,3,4,10,10a-pentaaza-cyclopenta[b]fluoren-9-one]
12 | 164 | O=C1c2ccccc2-c2nn3c(CO)nnc3nc21 [Example 1h/B]
13 | 2500 | O=C1c2ccccc2-c2nc3nnc(C4CC4)n3nc21 [Example 1j/A, 1-Cyclopropyl-2,3,4,10,10a-pentaaza-cyclopenta[b]fluoren-9-one]
14 | 663 | O=C1c2ccccc2-c2nc3nnc(Cc4ccccc4)n3nc21 [Example 1k/A, 1-Benzyl-2,3,4,10,10a-pentaaza-cyclopenta[b]fluoren-9-one]
15 | 166 | O=C1c2ccccc2-c2nn3c(Cc4ccccc4)nnc3nc21 [Example 1k/B, 3-Benzyl-1,2,3a,4,10-pentaaza-cyclopenta[b]fluoren-9-one]
16 | 119 | Cc1nnc2nc3c(nn12)-c1ccc(Cl)cc1C3=O [Example 3/B, 7-Chloro-3-methyl-1,2,3a, 4,10-pentaaza-cyclopenta[b]fluoren-9-one]
17 | 10000 | Cn1nc2nc3c(nc2n1)-c1ccccc1C3=O [Example 4a, 2-Methyl-2H-1,2,3,4,10-pentaaza-cyclopenta[b]fluoren-9-one]
18 | 15000 | O=C1c2ccccc2-c2nc3nn(Cc4ccccc4)nc3nc21 [Example 4b, 2-Benzyl-2H-1,2,3,4,10-pentaaza-cyclopenta[b]fluoren-9-one]
